Test [1] relates to U2OS cells expressing Per2-luciferase. In words: Circadian rhythm of U2OS cells expressing Per2-luciferase. The class given is cell-based, human. As to conditions: for Phenotype: phase of the circadian rhythm / Phenotype: Period shortening: Cay10576 15 μM, dinaciclib 10 nM, Cdk/Crk inhibitor 10 nM, n=4 (FIG. 1b, 1c); for Phenotype: Period lengthening: IKBKB inhibitors, all at 10 μM, n=5 (FIG. 1a). The procedure:
(a) IKBKB inhibitors. The concentration of all the inhibitors was 10 μM, n=5. (b) IKBKE inhibitors.
The above experiments were conducted with the drug added to the culture media from the beginning.

In another test the test system is SCN explants. The experiment in a line: Circadian rhythm of SCN explants from Per2::Luciferase mice. The class given is cell-based, mouse. Conditions: applied at CT12; p<0.01, n=8. The text has this:
U2OS cells are just cultured cells, while the SCN is the master clock in mammals. We dissected the SCN from mice expressing the Per2::Luciferase gene which faithfully reported the circadian rhythm (Yoo et al., 2004).

Test [2] deals with U2OS cells expressing Per2-luciferase. The experiment in a line: Circadian rhythm of U2OS cells expressing Per2-luciferase. The class given is cell-based, human.
The mark [3] stands for this setting: applied from the beginning of the assay.

On to `COc1cc2ncn(-c3cc(OCc4ccccc4S(C)(=O)=O)c(C#N)s3)c2cc1OC` [Cay10576], for which the “Phenotype: phase of the circadian rhythm” value in test [1] is “delay”. Moreover, the “Phenotype: Period shortening” value is recorded as “Period shortening, 0.3 ± 0.060 h; phase” in test [1] (setting [3]) and 0.3 h in test [1] (applied from the beginning of the assay, listed as Cayl0576).

Take `CC(C)c1[nH]n(-c2c(Cl)cccc2Cl)c2nc(Cc3ccc(OCCO)cc3)nc(=O)c1-2` [Cdk/crk inhibitor, 1-(2,6-dichlorophenyl)-6-[[4-(2-hydroxyethoxy)phenyl]methyl]-3-propan-2-yl-2H-pyrazolo[3,4-d]pyrimidin-4-one]: the “Phenotype: phase of the circadian rhythm” value in test [1] is given as “delay”. The “Phenotype: Period shortening” value in test [1] (setting [3]) was “Period shortening, 0.5 ± 0.074 h; phase”.

On to `NC(=O)Nc1sc(-c2ccc(F)cc2)cc1C(N)=O` [Ikk2 inhibitor iv, 2-(carbamoylamino)-5-(4-fluorophenyl)thiophene-3-carboxamide], for which the “Phenotype: Period lengthening” value in test [1] is on record as “Period lengthening, 3.16 ± 0.167 h”.

As for `CCc1cnn2c(NCc3ccc[n+]([O-])c3)cc(N3CCCC[C@H]3CCO)nc12` [Dinaciclib], the “Phenotype: Period shortening” value was “Period shortening, 0.6 ± 0.050 h; phase” in test [1] (setting [3]) and 0.6 h in test [1] (applied from the beginning of the assay, listed as dinaciclib). Moreover, the Increase of amplitude in test [1] (setting [3]) amounted to 1.78 fold. Further, the “Phase advance of SCN explants” value in the test with SCN explants turned out to be 2.488 ± 0.7391 h. Besides, the Phase delay in test [2] (applied at CT6, p<0.001, n=5) came out at 7.543 ± 0.6185 h; in test [2] (applied at CT12, p<0.0001, n=5), 5.808 ± 0.5455 h; in test [2] (applied at CTO, p<0.01, n=5), 4.092 ± 0.9062 h. This molecule gave a Phase advance in test [2] (introduced at CT18) of 1.7 ± 0.81 h.

As to `O=C(Nc1cc(C(F)(F)F)cc(C(F)(F)F)c1)c1cc(Cl)ccc1O` [Ikk2 inhibitor v, N-[3,5-bis(trifluoromethyl)phenyl]-5-chloro-2-hydroxybenzamide], in test [1], the “Phenotype: Period lengthening” value is “Period lengthening, 1.84 ± 0.192 h”.

As for `NC(=O)Nc1sc(-c2ccccc2)cc1C(N)=O` [Ikk2 inhibitor vi, 2-[(aminocarbonyl)amino]-5-phenyl-3-thiophenecarboxamide], in test [1], the “Phenotype: Period lengthening” value was “Period lengthening, 1.25 ± 0.149 h”.

The values are drawn from patent US20200009134A1, “Method and Compound for Modifying Circadian Clock” (Gritscience Biopharmaceuticals Co., Ltd., priority 2017, published 2020).
